In the oligonucleotide strings, read from the 5' end, every base follows the letter of its sugar. An asterisk marks phosphorothioate; unmarked linkages are phosphodiester. Other units and linkages are bracketed, terminal groups are in braces. A string of capitals states the bases alone. e = 2'-O-(2-methoxyethyl) (MOE); [5mC] = 5-methylcytosine; d = 2'-deoxy (DNA)
How the values were obtained:
Format in all cases: cell-based
mouse p38α mRNA [1] = test: Inhibition of mouse p38α mRNA expression in bEND.3 cells, Northern blot
Protocol: (§1) bEND.3, a mouse endothelial cell line (gift of Dr. Werner Risau; see Montesano et al., Cell, 1990, 62, 435, and Stepkowski et al., J. Immunol., 1994, 153, 5336) were grown in high-glucose DMEM (Life Technologies, Gaithersburg, Md.) medium containing 10% fetal bovine serum (FBS) and 1% Penicillin/Streptomycinin. Cells were plated at approximately 2×10^5 cells per 100 mm dish. Within 48 hours of plating, the cells were washed with phosphate-buffered saline (Life Technologies). Then, Opti-MEM7 medium containing 3 μg/mL LIPOFECTIN^7 and an appropriate amount of oligonucleotide were added to the cells. As a control, cells were treated with LIPOFECTIN^7 without oligonucleotide under the same conditions and for the same times as the oligonucleotide-treated samples.
(§2) After 4 hours at 37° C., the medium was replaced with high glucose DMEM medium containing 10% FBS and 1% Penicillin/Streptomycinin. The cells were typically allowed to recover overnight (about 18 to 24 hours) before RNA and/or protein assays were performed as described in Example 2. The p38α, p38β and G3PDH probes used were identical to those described in Example 2.
(§3) Rat p38α antisense oligonucleotides were screened in bEND.3 cells for inhibition of p38α and p38β mRNA expression. The concentration of oligonucleotide used was 100 nM. Oligonucleotides 21844 (SEQ ID NO. 47), 21845 (SEQ ID NO. 48), 21872 (SEQ ID NO. 51), 21873 (SEQ ID NO. 52), 21875 (SEQ ID NO. 54), and 21876 (SEQ ID NO.
(§4) Mouse p38β antisense sequences were screened in bEND.3 cells as described in Example 4.

mouse p38β mRNA = test: Inhibition of mouse p38β mRNA expression in bEND.3 cells, Northern blot
Protocol: as §1, §2, §3, §4

rat p38α mRNA = test: Inhibition of rat p38α mRNA expression in A-10 cells, Northern blot; conditions: Rat A-10 cells, 200 nM oligonucleotide, 24 hours
Protocol: Rat p38α antisense oligonucleotides were screened in Rat A-10 cells. A-10 cells (American Type Culture Collection, Manassas, Va.) were grown in high-glucose DMEM (Life Technologies, Gaithersburg, Md.) medium containing 10% fetal calf serum (FCS). Cells were treated with oligonucleotide as described in Example 2. Oligonucleotide concentration was 200 nM. mRNA was isolated 24 hours after time zero and quantitated by Northern blot as described in Example 2.

IL-6 secretion = IL-6 secretion by IL-1 stimulated bEND.3 cells, ELISA; conditions: DOSE 100, 1 ng/mL mouse IL-1 for 6 hours, 48 hours after oligonucleotide
Protocol: p38 MAPK antisense oligonucleotides were tested for their ability to reduce IL-6 secretion. bEND.3 cells were cultured and treated as described in Example 4 except that 48 hours after oligonucleotide treatment, cells were stimulated for 6 hours with 1 ng/mL recombinant mouse IL-1 (R&D Systems, Minneapolis, Minn.). IL-6 was measured in the medium using an IL-6 ELISA kit (Endogen Inc., Woburn, Mass.).

mouse p38α mRNA [2] = test: Mouse p38α mRNA levels in bEND.3 cells, quantitative real-time PCR; conditions: mouse bEND.3 cells, at 50 nM
Summary of the method: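 Mouse bEND.3 cells, antisense oligonucleotide-treated; p38α mRNA measured by one-step real-time RT-PCR (RT 30 min at 48 °C, then 40 cycles) with a FAM/TAMRA probe. Levels normalized to GAPDH or RiboGreen total RNA, and percent inhibition derived from standard curves of untreated-control mRNA.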

[3] = 100 nM rat p38α antisense oligonucleotide
[4] = mouse p38β antisense oligonucleotides, screened as in Example 4

“GoGoAoToGsGsAsCsAsGsAsAsCsAsGsAoAoGoCoA (antisense eGeGeAeTeG*dG*dA*d[5mC]*dA*dG*dA*dA*d[5mC]*dA*dG*eAeAeGe[5mC]eA) [ISIS 21874]” was tested, and the “% p38α mRNA INHIBITION” value (mouse p38α mRNA [1]; [3]) was 38%, the “% p38β mRNA Inhibition” value (mouse p38β mRNA; [3]) was 21% and the “% p38α mRNA EXPRESSION” value (rat p38α mRNA) was 22%.
For “AoToCoCoTsCsAsGsCsTsCsGsCsAsGsToCoCoToC (antisense eAeTe[5mC]e[5mC]eT*d[5mC]*dA*dG*d[5mC]*dT*d[5mC]*dG*d[5mC]*dA*dG*eTe[5mC]e[5mC]eTe[5mC]) [ISIS 100809]”, the “% p38α mRNA INHIBITION” value (mouse p38α mRNA [1]; [4]) was 14%.
With “ToGoCoAoCsCsAsCsAsAsGsCsAsCsCsToGoGoAoG (antisense eTeGe[5mC]eAe[5mC]*d[5mC]*dA*d[5mC]*dA*dA*dG*d[5mC]*dA*d[5mC]*d[5mC]*eTeGeGeAeG) [ISIS 21878]” the “% p38α mRNA INHIBITION” value (mouse p38α mRNA [1]; [3]) was 25%, the “% p38β mRNA Inhibition” value (mouse p38β mRNA; [3]) was 10% and the “% p38α mRNA EXPRESSION” value (rat p38α mRNA) was 35%.
For “ToToAoCoAsGsCsCsAsCsCsTsTsCsTsGoGoCoGoC (antisense eTeTeAe[5mC]eA*dG*d[5mC]*d[5mC]*dA*d[5mC]*d[5mC]*dT*dT*d[5mC]*dT*eGeGe[5mC]eGe[5mC]) [ISIS 100804]”, the “% p38α mRNA INHIBITION” value (mouse p38α mRNA [1]; [4]) was 18% and the “% IL-6 INHIBITION” value (IL-6 secretion) was 57%.
For “AoToGoGoAsTsGsTsGsGsCsCsGsGsCsGoToGoAoA (antisense eAeTeGeGeA*dT*dG*dT*dG*dG*d[5mC]*d[5mC]*dG*dG*d[5mC]*eGeTeGeAeA) [ISIS 100806]”, the “% p38α mRNA INHIBITION” value (mouse p38α mRNA [1]; [4]) was 3% and the “% p38β mRNA Inhibition” value (mouse p38β mRNA; [4]) was 22%.
“AoGoGoToGsCsTsCsAsGsGsAsCsTsCsCoAoToToT (antisense eAeGeGeTeG*d[5mC]*dT*d[5mC]*dA*dG*dG*dA*d[5mC]*dT*d[5mC]*e[5mC]eAeTeTeT) [ISIS 21873]” was tested, and the “% p38α mRNA INHIBITION” value (mouse p38α mRNA [1]; dose 25 nM) was 54%, the “% p38α mRNA INHIBITION” value (mouse p38α mRNA [1]; dose 100 nM (dose response)) was 92% and the “% IL-6 INHIBITION” value (IL-6 secretion) was 49%. For the same substance, the “% p38β mRNA Inhibition” value (mouse p38β mRNA; dose 1 nM) was 53%, the “% p38β mRNA Inhibition” value (mouse p38β mRNA; dose 5 nM) was 31% and the “% p38β mRNA Inhibition” value (mouse p38β mRNA; dose 25 nM) was 28%. For the same substance, the “% p38β mRNA Inhibition” value (mouse p38β mRNA; dose 100 nM (dose response)) was 25%, the “% p38α mRNA EXPRESSION” value (rat p38α mRNA) was 19% and the “reduction of p38α mRNA” value (mouse p38α mRNA [2]) was greater than 70%.
For “AoGoGoCoTsAsGsAsGsCsCsCsAsGsGsAoGoCoCoA (antisense eAeGeGe[5mC]eT*dA*dG*dA*dG*d[5mC]*d[5mC]*d[5mC]*dA*dG*dG*eAeGe[5mC]e[5mC]eA) [ISIS 21876]”, the “% p38β mRNA Inhibition” value (mouse p38β mRNA; [3]) was “minimal effects”, the “% p38α mRNA EXPRESSION” value (rat p38α mRNA) was 61% and the “% p38α mRNA INHIBITION” value (rat p38α mRNA) was 39%.
With “GoGoCoToAsCsCsAsTsGsAsGsTsGsAsGoAoAoGoA (antisense eGeGe[5mC]eTeA*d[5mC]*d[5mC]*dA*dT*dG*dA*dG*dT*dG*dA*eGeAeAeGeA) [ISIS 21879]” the “% p38α mRNA EXPRESSION” value (rat p38α mRNA) was 11%.
For “ToCoToToCsCsAsAsTsGsGsAsGsAsAsAoCoToGoG (antisense eTe[5mC]eTeTe[5mC]*d[5mC]*dA*dA*dT*dG*dG*dA*dG*dA*dA*eAe[5mC]eTeGeG) [ISIS 21881]”, the “% p38α mRNA EXPRESSION” value (rat p38α mRNA) was 31%.
In the case of “CoAoGoGoCsCsAsCsAsGsAsCsCsAsGsAoToGoToC (antisense e[5mC]eAeGeGe[5mC]*d[5mC]*dA*d[5mC]*dA*dG*dA*d[5mC]*d[5mC]*dA*dG*eAeTeGeTe[5mC]) [ISIS 100812]”, the “% p38α mRNA INHIBITION” value (mouse p38α mRNA [1]; [4]) was 17% and the “% p38β mRNA Inhibition” value (mouse p38β mRNA; [4]) was 36%.

— US20040171566A1, “Antisense modulation of p38 mitogen activated protein kinase expression” (priority 1999, published 2004)
